Experimental data taken from patent US20100267561A1, “HERBICIDAL PYRIDAZINONE DERIVATIVES” (priority 2007, published 2010).

Legend:
Assay type in all cases: in vivo
[1] = tested on: giant foxtail (Setaria faberi); assay: Test A pre-/postemergence plant response
Outline: (§1)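 Soil: loam blended with sand. Formulation: non-phytotoxic solvent mixture plus surfactant, applied as preemergence directed soil spray and as postemergence spray. Scoring: visual, 0 no effect to 100 complete control, roughly 10 days post-treatment in greenhouse.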

[2] = tested on: wheat (Triticum aestivum); assay: Test A pre-/postemergence plant response
Outline: as §1

[3] = tested on: velvetleaf (Abutilon theophrasti); assay: Test A pre-/postemergence plant response
Outline: as §1

[4] = tested on: pigweed (Amaranthus retroflexus); assay: Test C pre-/postemergence plant response
Outline: (§2)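 Pre- and postemergence treatment, visual 0–100 rating vs controls at 15–25 days.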

[5] = tested on: canarygrass (Phalaris minor); assay: Test C pre-/postemergence plant response; conditions: Preemergence
Outline: as §2

[6] = tested on: blackgrass (Alopecurus myosuroides); assay: Test C pre-/postemergence plant response
Outline: as §2

[7] = tested on: wild mustard (Sinapis arvensis); assay: Test C pre-/postemergence plant response
Outline: as §2

[8] = tested on: spring barley (Hordeum vulgare); assay: Test C pre-/postemergence plant response
Outline: as §2

[9] = tested on: winter wheat (Triticum aestivum); assay: Test C pre-/postemergence plant response
Outline: as §2

[10] = tested on: annual bluegrass (Poa annua); assay: Test C pre-/postemergence plant response
Outline: as §2

[11] = tested on: windgrass (Apera spica-venti); assay: Test C pre-/postemergence plant response
Outline: as §2

[12] = tested on: Italian ryegrass (Lolium multiflorum); assay: Test C pre-/postemergence plant response
Outline: as §2

[13] = tested on: winter barley (Hordeum vulgare); assay: Test C pre-/postemergence plant response
Outline: as §2

[14] = tested on: green foxtail (Setaria viridis); assay: Test C pre-/postemergence plant response
Outline: as §2

[15] = tested on: spring wheat (Triticum aestivum); assay: Test C pre-/postemergence plant response
Outline: as §2

[16] = Postemergence, 125 g ai/ha, 0 to 100 scale, 0 no effect, 100 complete control
[17] = Postemergence, 500 g ai/ha, 0 to 100 scale, 0 no effect, 100 complete control
[18] = Preemergence, 125 g ai/ha, 0 to 100 scale (0 no effect, 100 complete control)
[19] = Preemergence, 500 g ai/ha, 0 to 100 scale (0 no effect, 100 complete control)
[20] = Postemergence, 8 g ai/ha, scale 0 to 100, 0 no effect, 100 complete control
[21] = Postemergence, 16 g ai/ha, scale 0 to 100, 0 no effect, 100 complete control
[22] = Postemergence, 31 g ai/ha, scale 0 to 100, 0 no effect, 100 complete control
[23] = Postemergence, 62 g ai/ha, scale 0 to 100, 0 no effect, 100 complete control
[24] = Preemergence, 8 g ai/ha, scale 0 to 100 (0 no effect, 100 complete control)
[25] = Preemergence, 16 g ai/ha, scale 0 to 100 (0 no effect, 100 complete control)
[26] = Preemergence, 31 g ai/ha, scale 0 to 100 (0 no effect, 100 complete control)
[27] = Preemergence, 62 g ai/ha, scale 0 to 100, 0 no effect, 100 complete control

Cc1nn(C)c(=O)c(-n2nc(-c3ccc(Cl)cc3)cc2C)c1O [Compound 15]
Plant response rating, Foxtail, Giant [1, 16]: 90 | Plant response rating, Foxtail, Giant [1, 17]: 100 | Plant response rating, Foxtail, Giant [1, 18]: 90 | Plant response rating, Foxtail, Giant [1, 19]: 100 | Plant response rating, Wheat [2, 16]: 50 | Plant response rating, Wheat [2, 17]: 60 | Plant response rating, Wheat [2, 18]: 60 | Plant response rating, Wheat [2, 19]: 80 | Plant response rating, Velvetleaf [3, 16]: 0 | Plant response rating, Velvetleaf [3, 17]: 0 | Plant response rating, Velvetleaf [3, 18]: 0 | Plant response rating, Velvetleaf [3, 19]: 0 | Plant response rating, Pigweed [4, 20]: 0 | Plant response rating, Pigweed [4, 21]: 0 | Plant response rating, Pigweed [4, 22]: 0 | Plant response rating, Pigweed [4, 23]: 0 | Plant response rating, Pigweed [4, 24]: 0 | Plant response rating, Pigweed [4, 25]: 0 | Plant response rating, Pigweed [4, 26]: 0 | Plant response rating, Pigweed [4, 27]: 0 | Plant response rating, Canarygrass ([5]; 8 g ai/ha, scale 0 to 100 (0 no effect, 100 complete control)): 20 | Plant response rating, Canarygrass ([5]; 16 g ai/ha, scale 0 to 100 (0 no effect, 100 complete control)): 70 | Plant response rating, Canarygrass ([5]; 31 g ai/ha, scale 0 to 100 (0 no effect, 100 complete control)): 80 | Plant response rating, Canarygrass ([5]; 62 g ai/ha, scale 0 to 100, 0 no effect, 100 complete control): 95 | Plant response rating, Blackgrass [6, 20]: 75 | Plant response rating, Blackgrass [6, 21]: 95 | Plant response rating, Blackgrass [6, 22]: 98 | Plant response rating, Blackgrass [6, 23]: 100 | Plant response rating, Blackgrass [6, 24]: 70 | Plant response rating, Blackgrass [6, 25]: 80 | Plant response rating, Blackgrass [6, 26]: 95 | Plant response rating, Blackgrass [6, 27]: 98 | Plant response rating, Mustard, Wild [7, 20]: 0 | Plant response rating, Mustard, Wild [7, 21]: 0 | Plant response rating, Mustard, Wild [7, 22]: 0 | Plant response rating, Mustard, Wild [7, 23]: 20 | Plant response rating, Mustard, Wild [7, 24]: 0 | Plant response rating, Mustard, Wild [7, 25]: 0 | Plant response rating, Mustard, Wild [7, 26]: 0 | Plant response rating, Barley, Spring [8, 20]: 0 | Plant response rating, Barley, Spring [8, 21]: 0 | Plant response rating, Barley, Spring [8, 22]: 0 | Plant response rating, Barley, Spring [8, 23]: 50 | Plant response rating, Barley, Spring [8, 24]: 0 | Plant response rating, Barley, Spring [8, 25]: 0 | Plant response rating, Barley, Spring [8, 26]: 40 | Plant response rating, Barley, Spring [8, 27]: 65 | Plant response rating, Wheat, Winter [9, 20]: 0 | Plant response rating, Wheat, Winter [9, 21]: 0 | Plant response rating, Wheat, Winter [9, 22]: 0 | Plant response rating, Wheat, Winter [9, 23]: 25 | Plant response rating, Wheat, Winter [9, 24]: 0 | Plant response rating, Wheat, Winter [9, 25]: 0 | Plant response rating, Wheat, Winter [9, 26]: 20 | Plant response rating, Wheat, Winter [9, 27]: 25 | Plant response rating, Bluegrass [10, 20]: 0 | Plant response rating, Bluegrass [10, 21]: 25 | Plant response rating, Bluegrass [10, 22]: 40 | Plant response rating, Bluegrass [10, 23]: 50 | Plant response rating, Bluegrass [10, 24]: 40 | Plant response rating, Bluegrass [10, 25]: 60 | Plant response rating, Bluegrass [10, 26]: 75 | Plant response rating, Bluegrass [10, 27]: 90 | Plant response rating, Windgrass [11, 20]: 0 | Plant response rating, Windgrass [11, 21]: 0 | Plant response rating, Windgrass [11, 22]: 0 | Plant response rating, Windgrass [11, 23]: 40 | Plant response rating, Windgrass [11, 25]: 25 | Plant response rating, Windgrass [11, 26]: 75 | Plant response rating, Windgrass [11, 27]: 95 | Plant response rating, Ryegrass, Italian [12, 20]: 50 | Plant response rating, Ryegrass, Italian [12, 21]: 100 | Plant response rating, Ryegrass, Italian [12, 22]: 100 | Plant response rating, Ryegrass, Italian [12, 23]: 100 | Plant response rating, Ryegrass, Italian [12, 24]: 15 | Plant response rating, Ryegrass, Italian [12, 25]: 100 | Plant response rating, Ryegrass, Italian [12, 26]: 100 | Plant response rating, Ryegrass, Italian [12, 27]: 100 | Plant response rating, Barley, Winter [13, 20]: 0 | Plant response rating, Barley, Winter [13, 21]: 0 | Plant response rating, Barley, Winter [13, 22]: 10 | Plant response rating, Barley, Winter [13, 23]: 90 | Plant response rating, Barley, Winter [13, 24]: 0 | Plant response rating, Barley, Winter [13, 25]: 20 | Plant response rating, Barley, Winter [13, 26]: 50 | Plant response rating, Barley, Winter [13, 27]: 60 | Plant response rating, Foxtail, Green [14, 20]: 90 | Plant response rating, Foxtail, Green [14, 21]: 95 | Plant response rating, Foxtail, Green [14, 22]: 98 | Plant response rating, Foxtail, Green [14, 23]: 98 | Plant response rating, Foxtail, Green [14, 24]: 60 | Plant response rating, Foxtail, Green [14, 25]: 98 | Plant response rating, Foxtail, Green [14, 26]: 100 | Plant response rating, Foxtail, Green [14, 27]: 100 | Plant response rating, Wheat, Spring [15, 20]: 0 | Plant response rating, Wheat, Spring [15, 21]: 0 | Plant response rating, Wheat, Spring [15, 22]: 15 | Plant response rating, Wheat, Spring [15, 23]: 70 | Plant response rating, Wheat, Spring [15, 24]: 0 | Plant response rating, Wheat, Spring [15, 25]: 10 | Plant response rating, Wheat, Spring [15, 26]: 35 | Plant response rating, Wheat, Spring [15, 27]: 70
